The source of these data is patent publication US20100113504A1, “AMIDE COMPOUNDS AND THEIR USE AS ANTITUMOR AGENTS” (SIGMA-TAU INDUSTRIE FARMACEUTICHE RIUNITE S.P.A., priority 2007, published 2010).

Where two headings read alike, the source gives them in different places. A value given as a limit tells only on which side of the number the result lay.

Series [1] deals with NCI-H460 non-small cell carcinoma cells. The series can be described thus: Cytotoxicity (sulphorodamine B) on NCI-H460 tumor cells. The series is classed as cell-based. The conditions noted are these: Homo sapiens, 24 h treatment, then 48 h in drug-free medium, read-out: IC50 ± SD, NCI-H460. Here is the method: (§1) Tumor cells were seeded in 96-well tissue culture plates at approximately 10% confluence and were allowed to attach and recover for at least 24 h. […] The plates were incubated for 24 h at 37° C. At the end of the treatment, for NB4 tumor cells in suspension, the procedure was performed as follows: medium culture was removed by centrifugation of the plates at 1600×g for 10 min and the surnatant was removed. 250 μl PBS were added, then the plates were centrifuged at 1600×g for 10 min, the surnatant was removed. […] The plates were centrifuged again at 1600×g for 10 min, the medium culture was removed and 200 μl PBS and 50 μl of cold 80% TCA were added. The plates were incubated on ice for at least 1 h. TCA was removed, the plates were washed 3 times for immersion in distilled-water and dried before on paper, then in a thermostater at 40° C. Subsequently 200 μl of 0.4% sulphorodamine B in 1% acetic acid were added. The plates were incubated at room temperature for other 30 min. Sulphorodamine B was removed, the plates were washed for immersion in 1% acetic acid for 3 times, then they were washed and dried on paper. 200 μl Tris 10 mM were added, the plates were kept under stirring for 20 min. The survival cell was determined as optical density by a Multiskan spectrofluorimeter at 540 nm. […] Also the last day of the assay, the surnatant was removed without centrifugation.
(§2) The amount of cells killed was calculated as the percentage decrease in sulphorodamine B binding compared with control cultures.

For series [2], the system named is NB4, NCI-H460 and HCT-116 tumor cells. Briefly: Cytotoxicity summarised over the three tumor cell lines. In kind it is cell-based. The conditions noted are these: Homo sapiens; mean over NB4, NCI-H460, HCT-116; 24 h of treatment. Here is the method: as §1, §2
In series [3] the test system is NB4 human promyelocitic leukaemia. Briefly: Cytotoxicity (sulphorodamine B) on NB4 tumor cells. In kind it is cell-based. Particulars: Homo sapiens, NB-4, 24 h treatment, then 48 h in drug-free medium, read-out: IC50 ± SD, NB4. The procedure:
To test the effects of the compounds on cell growth, NB4 human promyelocitic leukaemia, NCI-H460 non-small cell carcinoma cells and HCT-116 human colon carcinoma cells were used. NB4 and NCI-H460 tumor cells were grown RPMI 1640 containing 10% fetal bovine serum (GIBCO), whereas HCT-116 tumor cells were grown in McCoy's 5A containing 10% fetal bovine serum (GIBCO).
Tumor cells were seeded in 96-well tissue culture plates at approximately 10% confluence and were allowed to attach and recover for at least 24 h. […] The plates were incubated for 24 h at 37° C. At the end of the treatment, for NB4 tumor cells in suspension, the procedure was performed as follows: medium culture was removed by centrifugation of the plates at 1600×g for 10 min and the surnatant was removed. 250 μl PBS were added, then the plates were centrifuged at 1600×g for 10 min, the surnatant was removed. 200 μl/well of medium culture RPMI 1640 containing 10% FCS were added and the plates were incubated at 37° C. for other 48 h. The plates were centrifuged again at 1600×g for 10 min, the medium culture was removed and 200 μl PBS and 50 μl of cold 80% TCA were added. The plates were incubated on ice for at least 1 h. TCA was removed, the plates were washed 3 times for immersion in distilled-water and dried before on paper, then in a thermostater at 40° C. Subsequently 200 μl of 0.4% sulphorodamine B in 1% acetic acid were added. The plates were incubated at room temperature for other 30 min. Sulphorodamine B was removed, the plates were washed for immersion in 1% acetic acid for 3 times, then they were washed and dried on paper. 200 μl Tris 10 mM were added, the plates were kept under stirring for 20 min. The survival cell was determined as optical density by a Multiskan spectrofluorimeter at 540 nm. For the tumor cells in adhesion (NCI-H460 and HCT-116), the procedure was as above mentioned, except that the at the end of the treatment, the plates were washed by remotion of the surnatant and addition of PBS 3 times and not by centrifugation. Also the last day of the assay, the surnatant was removed without centrifugation.
as §2

The subject of series [4] is HCT-116 human colon carcinoma cells. Briefly: Cytotoxicity (sulphorodamine B) on HCT-116 tumor cells. The conditions noted are these: Homo sapiens, HCT-116 cells, 24 h treatment, then 48 h in drug-free medium, read-out: IC50 ± SD, HCT-116. In kind it is cell-based. Here is the method: as §1, §2
The conditions of series [5]: rcm bond, Grubbs II, CH2Cl2, 1.0 mM.
The conditions of series [6]: rcm bond.

Usually IC50 stands for the concentration needed to halve the response being measured.

Regarding `COc1cc(COC(CCCCCC(=O)NO)C(=O)Nc2ccccc2)cc(OC)c1` (racemic) [Compound 9j, (±)-2-(3,5-Dimethoxybenzyloxy)octanedioic acid 8-hydroxyamide 1-phenylamide], the IC50 is 400 ± 70 nM in series [1], < 1000 nM in series [2], 50 ± 5 nM in series [3] and 300 ± 8 nM in series [4].

In series [5] (the molecule shown is the open-chain precursor, 13-membered ring), “7-(S)-Allyl-tert-butoxycarbonylamino)-7-(2-pent-4-enyloxyphenylcarbamoyl)heptanoic acid methyl ester” displayed a ring closure, isolated yield of 84%.

Compound “7-(S)-Allyl-tert-butoxycarbonylamino)-7-(2-hex-5-enyloxyphenylcarbamoyl)heptanoic acid methyl ester” came in with a ring closure, isolated yield in series [5] (the molecule shown is the open-chain precursor, 14-membered ring) of 82%.

Take `O=C(CCCCCC(OCc1cccc(Oc2ccccc2)c1)C(=O)Nc1ccccc1)NO` (racemic) [Compound 9k, (±)-2-(3-Phenoxybenzyloxy)-octanedioic acid 8-hydroxyamide 1-phenylamide]: the IC50 in series [1] was 700 ± 40 nM; in series [2], < 1000 nM; in series [3] it was 200 ± 9 nM; in series [4], 700 ± 80 nM.

The compound `COC(=O)CCCCCC1OCC=Cc2cc(cc(OC)c2)COc2ccccc2NC1=O` (racemic) returned a ring closure, isolated yield in series [5] (from C=CCOC(CCCCCC(=O)OC)C(=O)Nc1ccccc1OCc1cc(C=C)cc(OC)c1, 14-membered ring) of 52%.

With `COC(CCCCCC(=O)NO)C(=O)Nc1ccccc1` (racemic) [Compound 9b, (±)-2-Methoxyoctanedioic acid 8-hydroxyamide 1-phenylamide], the IC50 in series [1] was 1200 ± 100 nM; in series [2] it was < 1000 nM; in series [3], 500 ± 30 nM; in series [4], 900 ± 40 nM.

`COc1ccc(CO[C@H](CCCCCC(=O)NO)C(=O)Nc2ccccc2)cc1` [(R)-9d, 2-(R)-(4-Methoxybenzyloxy)octanedioic acid 8-hydroxyamide 1-phenylamide]: the IC50 in series [1] was 500 ± 30 nM; in series [2], < 1000 nM; in series [3], 70 ± 10 nM; in series [4], 400 ± 10 nM.

On to `O=C(CCCCCC(O)C(=O)Nc1ccccc1)NO` (racemic) [Compound 9a, (±)-2-Hydroxyoctanedioic acid 8-hydroxyamide 1-phenylamide], for which the IC50 in series [1] is 1000 ± 90 nM; in series [2], < 1000 nM; in series [3], 500 ± 30 nM; in series [4], 700 ± 20 nM.

Take `COc1ccc(NC(=O)C(CCCCCC(=O)NO)OCc2ccccc2)cc1` (racemic) [Compound 9l, (±)-2-Benzyloxyoctanedioic acid 8-hydroxyamide 1-[(4-methoxyphenyl)-amide]]: the IC50 was 1000 ± 90 nM in series [1], < 1000 nM in series [2], 200 ± 20 nM in series [3] and 500 ± 60 nM in series [4].

On to `COc1cccc(COC(CCCCCC(=O)NO)C(=O)Nc2ccccc2)c1` (racemic) [Compound 9h, (±)-2-(3-Methoxybenzyloxy)octanedioic acid 8-hydroxyamide 1-phenylamide], for which the IC50 was 600 ± 30 nM in series [1], < 1000 nM in series [2], 200 ± 7 nM in series [3] and 600 ± 100 nM in series [4].

Consider `COC(=O)CCCCC[C@H]1C(=O)Nc2ccccc2OCCCCC=CCN1C(=O)OC(C)(C)C`, for which the ring closure, yield of all isomers in series [6] (from C=CCCCCOc1ccccc1NC(=O)[C@H](CCCCCC(=O)OC)N(CC=C)C(=O)OC(C)(C)C) worked out at 82%.

In the case of `O=C(CCCCCC(OCc1ccc(Br)cc1)C(=O)Nc1ccccc1)NO` (racemic) [Compound 9f, (±)-2-(4-Bromobenzyloxy)octanedioic acid 8-hydroxyamide 1-phenylamide], the IC50 in series [1] was 500 ± 40 nM; in series [2], < 1000 nM; in series [3], 60 ± 4 nM; in series [4], 300 ± 50 nM.

In series [6] (from C=CCCCOc1ccccc1NC(=O)[C@H](CCCCCC(=O)OC)N(CC=C)C(=O)OC(C)(C)C), `COC(=O)CCCCC[C@H]1C(=O)Nc2ccccc2OCCCC=CCN1C(=O)OC(C)(C)C` displayed a ring closure, yield of all isomers of 84%.

For the compound `COC(=O)CCCCCC1OCC=CCCCOc2ccncc2NC1=O` (racemic), the ring closure, isolated yield in series [5] (from C=CCCCOc1ccncc1NC(=O)C(CCCCCC(=O)OC)OCC=C, 13-membered ring) came to 45%. Also, the ring closure, yield of all isomers in series [6] (from C=CCCCOc1ccncc1NC(=O)C(CCCCCC(=O)OC)OCC=C) was found to be 45%.

For the compound `COc1ccc(COC(CCCCCCC(=O)NO)C(=O)Nc2ccccc2)cc1` (racemic) [Compound 13d, (±)-2-(4-Methoxybenzyloxy)nonanedioic acid 9-hydroxyamide 1-phenylamide], the concentration for half-maximal inhibition (IC50) in series [1] is 700 ± 30 nM; in series [2] it was < 1000 nM; in series [3], 300 ± 30 nM; in series [4], 500 ± 100 nM.

In series [5] (from C=CCOC(CCCCCC(=O)OC)C(=O)Nc1ccccc1OC(CC=C)c1ccc(OC)cc1, 12-membered ring), `COC(=O)CCCCCC1OCC=CCC(c2ccc(OC)cc2)Oc2ccccc2NC1=O` (racemic) registered a ring closure, isolated yield of 45%.
